Structures can show the parent of a compound that is named as a salt. Where two headings read alike, the source gives them in different places.
Assays:
Assay in all cases: Kinase binding assay (kinase-tagged T7 phage, qPCR), Kd
FGFR4 = biological target: T1, FGFR4 (Homo sapiens, UniProt P22455)
T1 construct: made in house; host or cells: E. coli derived from BL21, infected with T7 phage

FGFR3 = biological target: T2, FGFR3 (Homo sapiens, UniProt P22607)
T2 construct: made in house; host or cells: E. coli derived from BL21, infected with T7 phage
T2 sequence (P22607 23-806): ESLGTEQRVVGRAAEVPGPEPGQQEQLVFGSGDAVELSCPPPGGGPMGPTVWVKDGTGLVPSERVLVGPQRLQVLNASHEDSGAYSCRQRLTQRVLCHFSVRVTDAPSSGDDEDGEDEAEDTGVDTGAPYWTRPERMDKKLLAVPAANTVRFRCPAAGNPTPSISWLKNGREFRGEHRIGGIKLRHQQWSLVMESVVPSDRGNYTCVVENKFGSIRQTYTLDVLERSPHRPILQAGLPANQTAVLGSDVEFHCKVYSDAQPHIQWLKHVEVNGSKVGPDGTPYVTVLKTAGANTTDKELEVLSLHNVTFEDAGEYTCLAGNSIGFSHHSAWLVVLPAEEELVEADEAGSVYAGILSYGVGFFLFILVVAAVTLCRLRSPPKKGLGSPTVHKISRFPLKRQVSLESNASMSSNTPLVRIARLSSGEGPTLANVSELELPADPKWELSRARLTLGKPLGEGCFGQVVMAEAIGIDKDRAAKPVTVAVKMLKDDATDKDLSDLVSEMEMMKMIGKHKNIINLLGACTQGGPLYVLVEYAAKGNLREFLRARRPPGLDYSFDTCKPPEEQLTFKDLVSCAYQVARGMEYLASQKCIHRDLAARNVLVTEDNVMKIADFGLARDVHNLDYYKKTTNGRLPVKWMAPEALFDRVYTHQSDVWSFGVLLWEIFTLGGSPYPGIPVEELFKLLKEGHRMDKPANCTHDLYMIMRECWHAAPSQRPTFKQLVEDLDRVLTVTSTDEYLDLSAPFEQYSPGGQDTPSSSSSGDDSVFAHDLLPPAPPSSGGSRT

FGFR2 = biological target: T3, FGFR2 (Homo sapiens, UniProt P21802)
T3 construct: made in house; host or cells: E. coli derived from BL21, infected with T7 phage
T3 sequence (P21802 22-821): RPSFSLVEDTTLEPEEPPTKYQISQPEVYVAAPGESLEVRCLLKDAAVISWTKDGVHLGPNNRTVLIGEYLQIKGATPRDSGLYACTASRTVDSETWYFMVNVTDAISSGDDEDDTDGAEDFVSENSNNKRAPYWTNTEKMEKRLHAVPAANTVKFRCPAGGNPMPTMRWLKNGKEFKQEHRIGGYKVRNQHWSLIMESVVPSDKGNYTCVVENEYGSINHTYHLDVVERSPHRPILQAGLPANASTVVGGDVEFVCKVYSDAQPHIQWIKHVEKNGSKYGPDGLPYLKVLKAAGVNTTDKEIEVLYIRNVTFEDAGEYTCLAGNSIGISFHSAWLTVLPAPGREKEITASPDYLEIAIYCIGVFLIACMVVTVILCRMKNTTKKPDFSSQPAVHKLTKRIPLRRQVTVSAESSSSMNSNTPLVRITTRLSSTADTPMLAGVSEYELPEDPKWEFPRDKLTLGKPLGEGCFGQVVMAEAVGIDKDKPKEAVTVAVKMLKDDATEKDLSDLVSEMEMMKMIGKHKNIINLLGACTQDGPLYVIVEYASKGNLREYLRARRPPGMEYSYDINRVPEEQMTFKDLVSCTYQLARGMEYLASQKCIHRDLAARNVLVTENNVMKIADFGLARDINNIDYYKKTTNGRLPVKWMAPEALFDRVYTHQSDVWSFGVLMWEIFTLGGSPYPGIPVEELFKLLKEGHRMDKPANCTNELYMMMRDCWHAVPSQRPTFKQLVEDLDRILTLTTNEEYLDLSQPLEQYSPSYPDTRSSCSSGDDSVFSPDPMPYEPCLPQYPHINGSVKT

FGFR1 = biological target: T4, FGFR1 (Homo sapiens, UniProt P11362)
T4 construct: made in house; host or cells: E. coli derived from BL21, infected with T7 phage
T4 sequence (P11362 22-822): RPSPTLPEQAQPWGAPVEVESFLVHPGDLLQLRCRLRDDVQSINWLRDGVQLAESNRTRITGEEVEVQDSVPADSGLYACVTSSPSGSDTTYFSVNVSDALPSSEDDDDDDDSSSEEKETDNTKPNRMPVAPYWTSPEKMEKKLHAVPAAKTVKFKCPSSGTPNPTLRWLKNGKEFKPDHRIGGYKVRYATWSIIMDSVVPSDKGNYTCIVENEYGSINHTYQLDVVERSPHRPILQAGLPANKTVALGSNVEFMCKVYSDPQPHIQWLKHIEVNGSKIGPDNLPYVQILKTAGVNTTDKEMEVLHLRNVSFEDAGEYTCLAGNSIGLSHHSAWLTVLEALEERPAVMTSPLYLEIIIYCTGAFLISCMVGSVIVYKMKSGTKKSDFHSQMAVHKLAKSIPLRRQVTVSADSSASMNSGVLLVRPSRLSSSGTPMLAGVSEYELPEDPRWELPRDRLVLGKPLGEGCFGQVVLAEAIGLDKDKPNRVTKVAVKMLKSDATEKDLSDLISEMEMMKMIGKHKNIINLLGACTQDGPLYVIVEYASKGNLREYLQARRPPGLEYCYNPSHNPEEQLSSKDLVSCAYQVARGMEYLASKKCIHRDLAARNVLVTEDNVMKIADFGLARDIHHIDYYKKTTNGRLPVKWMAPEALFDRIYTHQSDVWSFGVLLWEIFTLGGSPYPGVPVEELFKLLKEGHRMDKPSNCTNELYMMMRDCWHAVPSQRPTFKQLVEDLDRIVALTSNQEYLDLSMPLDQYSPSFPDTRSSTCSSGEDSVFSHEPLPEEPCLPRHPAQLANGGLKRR

T1 sequence (P22455 22-802): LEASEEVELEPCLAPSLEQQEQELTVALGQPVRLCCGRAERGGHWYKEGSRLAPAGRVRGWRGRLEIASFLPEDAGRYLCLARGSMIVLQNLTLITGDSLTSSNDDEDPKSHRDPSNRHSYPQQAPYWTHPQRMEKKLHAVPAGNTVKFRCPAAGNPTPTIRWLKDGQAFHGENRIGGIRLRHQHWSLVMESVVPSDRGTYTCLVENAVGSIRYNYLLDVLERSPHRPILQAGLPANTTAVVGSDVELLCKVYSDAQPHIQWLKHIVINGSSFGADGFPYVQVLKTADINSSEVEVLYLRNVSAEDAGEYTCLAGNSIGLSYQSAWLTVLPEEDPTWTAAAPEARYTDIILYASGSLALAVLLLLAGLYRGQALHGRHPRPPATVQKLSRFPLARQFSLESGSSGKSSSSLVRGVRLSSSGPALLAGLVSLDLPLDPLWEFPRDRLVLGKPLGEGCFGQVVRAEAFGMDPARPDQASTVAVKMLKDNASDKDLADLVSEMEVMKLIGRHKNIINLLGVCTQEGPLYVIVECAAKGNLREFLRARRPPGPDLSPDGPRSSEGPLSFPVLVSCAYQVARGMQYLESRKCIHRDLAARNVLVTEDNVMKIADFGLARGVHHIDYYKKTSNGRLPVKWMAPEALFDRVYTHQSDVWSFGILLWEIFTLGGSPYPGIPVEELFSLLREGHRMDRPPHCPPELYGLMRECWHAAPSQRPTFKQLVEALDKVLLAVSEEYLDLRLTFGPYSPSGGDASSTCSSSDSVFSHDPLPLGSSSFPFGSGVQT

Row | SMILES | Kd (FGFR4) | Kd (FGFR3) | Kd (FGFR2) | Kd (FGFR1) | Kd (FGFR4; read-out: FGFR4 (Kd nM)) | Kd (FGFR3; read-out: FGFR3 (Kd nM)) | Kd (FGFR2; read-out: FGFR2 (Kd nM)) | Kd (FGFR1; read-out: FGFR1 (Kd nM))
1 | C[C@@H](Oc1ccc2[nH]nc(-c3ccc4c(c3)COC3(CCNCC3)O4)c2c1)c1c(Cl)cncc1Cl [Example 94, (R)-6-(5-(1-(3,5-Dichloropyridin-4-yl)ethoxy)-1H-indazol-3-yl)-4H-spiro[benzo[d][1,3]dioxine-2,4′-piperidine] TFA salt] | 0.1 to 100 nM | 0.1 to 100 nM | 0.1 to 100 nM | 0.1 to 100 nM | – | – | – | –
2 | Cc1cnnc(C)c1[C@@H](C)Oc1ccc2[nH]nc(-c3cc(C#N)cc(OC(C)C)c3)c2c1 [Example 57, 3-[5-[(1R)-1-(3,5-dimethylpyridazin-4-yl)ethoxy]-1H-indazol-3-yl]-5-isopropoxy-benzonitrile] | – | – | – | – | 0.1 to 100 nM | 250 to 1000 nM | > 1000 nM | 250 to 1000 nM
3 | CC(C)N1CCOc2ncc(-c3n[nH]c4ccc(O[C@H](C)c5c(Cl)cncc5Cl)cc34)cc21 [Example 141, (R)-7-(5-(1-(3,5-dichloropyridin-4-yl)ethoxy)-1H-indazol-3-yl)-1-isopropyl-2,3-dihydro-1H-pyrido[2,3-b][1,4]oxazine] | – | – | – | – | 0.1 to 100 nM | > 1000 nM | > 1000 nM | > 1000 nM
4 | CCN1CCC(Oc2c(C)cc(-c3n[nH]c4ccc(O[C@H](C)c5c(C)cnnc5C)cc34)cc2C#N)CC1 [Example 115, (R)-5-(5-(1-(3,5-dimethylpyridazin-4-yl)ethoxy)-1H-indazol-3-yl)-2-((1-ethylpiperidin-4-yl)oxy)-3-methylbenzonitrile] | – | – | – | – | 0.1 to 100 nM | 0.1 to 100 nM | 0.1 to 100 nM | 0.1 to 100 nM
5 | COc1ncc(-c2n[nH]c3ccc(O[C@H](C)c4c(Cl)cncc4Cl)cc23)cc1NC(=O)CN(C)C [Example 15, N-[5-[5-[(1R)-1-(3,5-dichloro-4-pyridyl)ethoxy]-1H-indazol-3-yl]-2-methoxy-3-pyridyl]-2-(dimethylamino)acetamide] | – | – | – | – | 0.1 to 100 nM | 100 to 250 nM | > 1000 nM | > 1000 nM
6 | COc1ncc(-c2n[nH]c3ccc(O[C@H](C)c4c(Cl)cncc4Cl)cc23)cc1NC(=O)c1cccc2cccnc12 [Example 3, (R)—N-(5-(5-(1-(3,5-Dichloropyridin-4-yl)ethoxy)-1H-indazol-3-yl)-2-methoxypyridin-3-yl)quinoline-8-carboxamide] | – | – | – | – | 250 to 1000 nM | > 1000 nM | > 1000 nM | > 1000 nM
7 | C[C@@H](Oc1ccc2[nH]nc(-c3ccc(OC4CC5(COC5)C4)nc3)c2c1)c1c(Cl)cncc1Cl [Example 161, (R)-3-(6-(2-oxaspiro[3.3]heptan-6-yloxy)pyridin-3-yl)-5-(1-(3,5-dichloropyridin-4-yl)ethoxy)-1H-indazole] | – | – | – | – | 0.1 to 100 nM | 0.1 to 100 nM | 0.1 to 100 nM | 0.1 to 100 nM
8 | Cc1cc(-c2n[nH]c3ccc(O[C@H](C)c4c(C)cnnc4C)cc23)cc(C#N)c1OC1CCN(C2CCC2)CC1 [Example 120, (R)-2-((1-cyclobutylpiperidin-4-yl)oxy)-5-(5-(1-(3,5-dimethylpyridazin-4-yl)ethoxy)-1H-indazol-3-yl)-3-methylbenzonitrile] | – | – | – | – | 0.1 to 100 nM | 0.1 to 100 nM | 0.1 to 100 nM | 0.1 to 100 nM
9 | COc1cc2[nH]nc(-c3cnc4c(c3)N(S(C)(=O)=O)CCO4)c2cc1O[C@H](C)c1c(Cl)cncc1Cl [Example 140, 7-[5-[(1R)-1-(3,5-dichloro-4-pyridyl)ethoxy]-6-methoxy-1H-indazol-3-yl]-1-methylsulfonyl-2,3-dihydropyrido[2,3-b][1,4]oxazine] | – | – | – | – | 0.1 to 100 nM | 100 to 250 nM | 250 to 1000 nM | 250 to 1000 nM
10 | C[C@@H](Oc1ccc2[nH]nc(-c3cnc(O[C@@H]4CCOC4)c(C#N)c3)c2c1)c1c(Cl)cncc1Cl [Example 134, 5-(5-((R)-1-(3,5-dichloropyridin-4-yl)ethoxy)-1H-indazol-3-yl)-2-(((R)-tetrahydrofuran-3-yl)oxy)nicotinonitrile] | – | – | – | – | 0.1 to 100 nM | 0.1 to 100 nM | 0.1 to 100 nM | 100 to 250 nM
11 | COc1ncc(-c2n[nH]c3ccc(O[C@H](C)c4c(Cl)cncc4Cl)cc23)cc1NC(=O)N1CCN(C)CC1 [Example 7, (R)—N-(5-(5-(1-(3,5-Dichloropyridin-4-yl)ethoxy)-1H-indazol-3-yl)-2-methoxypyridin-3-yl)-4-methylpiperazine-1-carboxamide] | – | – | – | – | 0.1 to 100 nM | 100 to 250 nM | > 1000 nM | > 1000 nM
12 | Cc1cc(-c2n[nH]c3ccc(O[C@H](C)c4c(C)cnnc4C)cc23)cc(C#N)c1OC1CCN(C(C)C)CC1 [Example 110, (R)-5-(5-(1-(3,5-dimethylpyridazin-4-yl)ethoxy)-1H-indazol-3-yl)-2-((1-isopropylpiperidin-4-yl)oxy)-3-methylbenzonitrile] | – | – | – | – | 0.1 to 100 nM | 0.1 to 100 nM | 0.1 to 100 nM | 0.1 to 100 nM
13 | COc1ncc(-c2n[nH]c3ccc(O[C@H](C)c4c(Cl)cncc4Cl)cc23)cc1N [Example 1, 5-[5-[(1R)-1-(3,5-dichloro-4-pyridyl)ethoxy]-1H-indazol-3-yl]-2-methoxy-pyridin-3-amine] | – | – | – | – | 0.1 to 100 nM | 0.1 to 100 nM | 100 to 250 nM | 100 to 250 nM
14 | COc1ncc(-c2n[nH]c3ccc(O[C@H](C)c4c(Cl)cncc4Cl)cc23)cc1NCc1ccccn1 [Example 4, (R)-5-(5-(1-(3,5-Dichloropyridin-4-yl)ethoxy)-1H-indazol-3-yl)-2-methoxy-N-(pyridin-2-ylmethyl)pyridin-3-amine] | – | – | – | – | 250 to 1000 nM | 250 to 1000 nM | > 1000 nM | > 1000 nM
15 | CCN1CCC2(CC1)CC(O)c1cc(-c3n[nH]c4ccc(O[C@H](C)c5c(C)cnnc5C)cc34)ccc1O2 (stereo partly drawn) [Example 107, 6-(5-((R)-1-(3,5-dimethylpyridazin-4-yl)ethoxy)-1H-indazol-3-yl)-1′-ethylspiro[chroman-2,4′-piperidin]-4-ol] | – | – | – | – | 0.1 to 100 nM | 0.1 to 100 nM | 0.1 to 100 nM | 0.1 to 100 nM
16 | COc1ncc(-c2n[nH]c3ccc(O[C@H](C)c4c(Cl)cncc4Cl)cc23)cc1NC(=O)N1CCOCC1 [Example 5, (R)—N-(5-(5-(1-(3,5-Dichloropyridin-4-yl)ethoxy)-1H-indazol-3-yl)-2-methoxypyridin-3-yl)morpholine-4-carboxamide] | – | – | – | – | 0.1 to 100 nM | 250 to 1000 nM | 100 to 250 nM | > 1000 nM
17 | Cc1cc(-c2n[nH]c3ccc(O[C@H](C)c4c(Cl)cnc(C)c4Cl)cc23)cnc1O[C@H]1CCOC1 [Example 154, 5-[(1R)-1-(3,5-dichloro-2-methyl-4-pyridyl)ethoxy]-3-[5-methyl-6-[(3S)-tetrahydrofuran-3-yl]oxy-3-pyridyl]-1H-indazole] | – | – | – | – | 0.1 to 100 nM | 0.1 to 100 nM | 250 to 1000 nM | 250 to 1000 nM
18 | Cc1cnnc(C)c1[C@H](C)Oc1ccc2[nH]nc(-c3cc(C#N)cc(N4CC5(CN(C)C5)C4)c3)c2c1 [Example 91, (S)-3-(5-(1-(3,5-dimethylpyridazin-4-yl)ethoxy)-1H-indazol-3-yl)-5-(6-methyl-2,6-diazaspiro[3.3]heptan-2-yl)benzonitrile] | – | – | – | – | > 1000 nM | > 1000 nM | > 1000 nM | > 1000 nM
19 | C[C@@H](Oc1ccc2[nH]nc(-c3ccc(NC(=O)C4CC4)nc3)c2c1)c1c(Cl)cncc1Cl [Example 11, (R)—N-(5-(5-(1-(3,5-Dichloropyridin-4-yl)ethoxy)-1H-indazol-3-yl)pyridin-2-yl)cyclopropanecarboxamide] | – | – | – | – | 0.1 to 100 nM | 0.1 to 100 nM | 100 to 250 nM | 0.1 to 100 nM

Source: US20240316022A1 (TYRA BIOSCIENCES, INC., priority 2021, published 2024)
